# Like-named read-outs stand apart in the source and are kept apart here.
# Test system: human TH17 cells
# Assay: Inhibition of IL-17 release from human TH17 cells
# Assay type: cell-based
# Conditions: isolated human TH17 cells, 4 days culture, IL-17A by HTRF; for IC50: 96 h, read-out: pIC50 IL-17 release (converted)
# Description: Inhibition of IL-17 Release from Human TH17 Cells (IL-17 Release)
# This test is designed to screen compounds for their inhibitory effect on the release of IL-17 from isolated and cultured human TH17 cells.
# Peripheral blood mononuclear cells (PBMC) were isolated from heparin treated human whole blood fromhealthy donors by density gradient centrifugation. TH17 cells (CD4+CXCR3-CCR6+) were enriched using a human TH17 Cell Enrichment Kit (Stemcell Technologies) according to the manufacturer's protocol. […] On day 4 supernatants were collected and IL-17A was measured using a Human IL-17 HTRF Assay kit (Cisbio Bioassays) according to the manufacturer's protocol. […] Results
Compound,IC50 (Homo sapiens),other results
"CNS(=O)(=O)c1ccc2c(c1)CN(C(=O)CO)C2C(=O)Nc1ccc(C(O)(C(F)(F)F)C(F)(F)F)cc1 (centres unmarked) [Example 313, N-[4-(1,1,1,3,3,3-Hexafluoro-2-hydroxypropan-2-yl)phenyl]-2-(hydroxyacetyl)-5-(methylsulfamoyl)-2,3-dihydro-1H-isoindole-1-carboxamide]",100 nM,
CNC(=O)N1Cc2cc(S(=O)(=O)CCOC)ccc2C1C(=O)Nc1ccc(C(O)(C(F)(F)F)C(F)(F)F)cc1 (centres unmarked) [Example 707],50.1 nM,
"CS(=O)(=O)c1ccc2c(c1)CN(C(=O)C1COC1)C2C(=O)Nc1ccc(C(O)(C(F)(F)F)C(F)(F)F)cc1 (centres unmarked) [Example 444, N-[4-(1,1,1,3,3,3-Hexafluoro-2-hydroxypropan-2-yl)phenyl]-5-(methylsulfonyl)-2-(oxetan-3-ylcarbonyl)-2,3-dihydro-1H-isoindole-1-carboxamide]",63.1 nM,
"CCS(=O)(=O)c1ccc2c(c1)CN(C(=O)C1(C#N)CC1)C2C(=O)Nc1ccc(C(O)(C(F)(F)F)C(F)(F)F)cc1 (centres unmarked) [Example 105, 2-[(1-Cyanocyclopropyl)carbonyl]-5-(ethylsulfonyl)-N-[4-(1,1,1,3,3,3-hexafluoro-2-hydroxypropan-2-yl)phenyl]-2,3-dihydro-1H-isoindole-1-carboxamide]",20 nM,
"CCS(=O)(=O)c1ccc2c(c1)CNC2C(=O)Nc1ccc(C(O)(C(F)(F)F)C(F)(F)F)cc1 (centres unmarked) [Example 100, 5-(Ethylsulfonyl)-N-[4-(1,1,1,3,3,3-hexafluoro-2-hydroxypropan-2-yl)phenyl]-2,3-dihydro-1H-isoindole-1-carboxamide]",39.8 nM,
"CS(=O)(=O)c1ccc2c(c1)CN(C(N)=O)C2C(=O)Nc1ccc(C(O)(C(F)(F)F)C(F)(F)F)cc1 (centres unmarked) [Example 455, N^1-[4-(1,1,1,3,3,3-Hexafluoro-2-hydroxypropan-2-yl)phenyl]-5-(methylsulfonyl)-1,3-dihydro-2H-isoindole-1,2-dicarboxamide]",100 nM,
"CC1(C(=O)N2Cc3cc(S(C)(=O)=O)ccc3[C@@H]2C(=O)Nc2ccc(C(O)(C(F)(F)F)C(F)(F)F)cc2)CCO1 (single isomer, unassigned) [Example 452, isomer 2]",,"pIC50 IL-17 release (listed as 452, isomer 2): 7.3"
"COC1(C(=O)N2Cc3cc(S(C)(=O)=O)ccc3C2C(=O)Nc2ccc(C(O)(C(F)(F)F)C(F)(F)F)cc2)CCC1 (centres unmarked) [Example 448, N-[4-(1,1,1,3,3,3-Hexafluoro-2-hydroxypropan-2-yl)phenyl]-2-[(1-methoxycyclobutyl)carbonyl]-5-(methylsulfonyl)-2,3-dihydro-1H-isoindole-1-carboxamide]",,IC50: 79.4 nM
"COC(=O)N1Cc2cc(S(=O)(=O)CC3(C#N)CC3)ccc2C1C(=O)Nc1ccc(C(O)(C(F)(F)F)C(F)(F)F)cc1 (centres unmarked) [Example 902, Methyl 5-{[(1-cyanocyclopropyl)methyl]sulfonyl}-1-{[4-(1,1,1,3,3,3-hexafluoro-2-hydroxypropan-2-yl)phenyl]carbamoyl}-1,3-dihydro-2H-isoindole-2-carboxylate]",50.1 nM,
"CNS(=O)(=O)c1ccc2c(c1)CN(C(=O)[C@H]1CCCO1)C2C(=O)Nc1ccc(C(O)(C(F)(F)F)C(F)(F)F)cc1 (stereo partly drawn) [Example 310, N-[4-(1,1,1,3,3,3-Hexafluoro-2-hydroxypropan-2-yl)phenyl]-5-(methylsulfamoyl)-2-[(2R)-tetrahydrofuran-2-ylcarbonyl]-2,3-dihydro-1H-isoindole-1-carboxamide]",31.6 nM,
"COCCS(=O)(=O)c1ccc2c(c1)CN(C(=O)CO)C2C(=O)Nc1ccc(C(O)(C(F)(F)F)C(F)(F)F)cc1 (centres unmarked) [Example 705, N-[4-(1,1,1,3,3,3-Hexafluoro-2-hydroxypropan-2-yl)phenyl]-2-(hydroxyacetyl)-5-[(2-methoxyethyl)sulfonyl]-2,3-dihydro-1H-isoindole-1-carboxamide]",100 nM,
"CC[C@H](O)C(=O)N1Cc2cc(S(=O)(=O)NC)ccc2C1C(=O)Nc1ccc(C(O)(C(F)(F)F)C(F)(F)F)cc1 (single isomer, unassigned) [Example 307, isomer 2, (R) or (S)N-[4-(1,1,1,3,3,3-Hexafluoro-2-hydroxypropan-2-yl)phenyl]-2-[(2S)-2-hydroxybutanoyl]-5-(methylsulfamoyl)-2,3-dihydro-1H-isoindole-1-carboxamide]",,"pIC50 IL-17 release (listed as 307, isomer 2): 6.5"
"COCCS(=O)(=O)c1ccc2c(c1)CN(C(=O)COC)C2C(=O)Nc1ccc(C(O)(C(F)(F)F)C(F)(F)F)cc1 (centres unmarked) [Example 706, N-[4-(1,1,1,3,3,3-Hexafluoro-2-hydroxypropan-2-yl)phenyl]-2-(methoxyacetyl)-5-[(2-methoxyethyl)sulfonyl]-2,3-dihydro-1H-isoindole-1-carboxamide]",50.1 nM,
"CC[C@@H](O)C(=O)N1Cc2cc(S(=O)(=O)NC)ccc2C1C(=O)Nc1ccc(C(O)(C(F)(F)F)C(F)(F)F)cc1 (single isomer, unassigned) [Example 303, isomer 2]",,"pIC50 IL-17 release (listed as 303, isomer 2): 7.5"
"CCS(=O)(=O)c1ccc2c(c1)CN(C(=O)CC1(OC)CC1)C2C(=O)Nc1ccc(C(O)(C(F)(F)F)C(F)(F)F)cc1 (centres unmarked) [Example 112, 5-(Ethylsulfonyl)-N-[4-(1,1,1,3,3,3-hexafluoro-2-hydroxypropan-2-yl)phenyl]-2-[(1-methoxycyclopropyl)acetyl]-2,3-dihydro-1H-isoindole-1-carboxamide]",31.6 nM,
"CC(CO)C(=O)N1Cc2cc(S(C)(=O)=O)ccc2C1C(=O)Nc1ccc(C(O)(C(F)(F)F)C(F)(F)F)cc1 (centres unmarked) [Example 425, N-[4-(1,1,1,3,3,3-Hexafluoro-2-hydroxypropan-2-yl)phenyl]-2-(3-hydroxy-2-methylpropanoyl)-5-(methylsulfonyl)-2,3-dihydro-1H-isoindole-1-carboxamide]",79.4 nM,
"COC1(C(=O)N2Cc3cc(S(C)(=O)=O)ccc3C2C(=O)Nc2ccc(C(O)(C(F)(F)F)C(F)(F)F)c(F)c2)CC1 (centres unmarked) [Example 440, N-[3-Fluoro-4-(1,1,1,3,3,3-hexafluoro-2-hydroxypropan-2-yl)phenyl]-2-[(1-methoxycyclopropyl)carbonyl]-5-(methylsulfonyl)-2,3-dihydro-1H-isoindole-1-carboxamide]",31.6 nM,
"CO[C@H](C)C(=O)N1Cc2cc(S(C)(=O)=O)ccc2C1C(=O)Nc1ccc(C(O)(C(F)(F)F)C(F)(F)F)cc1 (mixture of isomers) [Example 449, N-[4-(1,1,1,3,3,3-Hexafluoro-2-hydroxypropan-2-yl)phenyl]-2-[(2R)-2-methoxypropanoyl]-5-(methylsulfonyl)-2,3-dihydro-1H-isoindole-1-carboxamide]",79.4 nM,
"CNS(=O)(=O)c1ccc2c(c1)CN(C(=O)COC)C2C(=O)Nc1ccc(C(O)(C(F)(F)F)C(F)(F)F)cc1 (centres unmarked) [Example 308, N-[4-(1,1,1,3,3,3-Hexafluoro-2-hydroxypropan-2-yl)phenyl]-2-(methoxyacetyl)-5-(methylsulfamoyl)-2,3-dihydro-1H-isoindole-1-carboxamide]",31.6 nM,
"CC(=O)N1Cc2cc(S(C)(=O)=O)ccc2C1C(=O)Nc1ccc(C(O)(C(F)(F)F)C(F)(F)F)cc1F (centres unmarked) [Example 437, 2-Acetyl-N-[2-fluoro-4-(1,1,1,3,3,3-hexafluoro-2-hydroxypropan-2-yl)phenyl]-5-(methylsulfonyl)-2,3-dihydro-1H-isoindole-1-carboxamide]",20 nM,
"CCC(OC)C(=O)N1Cc2cc(S(=O)(=O)NC)ccc2C1C(=O)Nc1ccc(C(O)(C(F)(F)F)C(F)(F)F)cc1 (centres unmarked) [Example 312, N-[4-(1,1,1,3,3,3-Hexafluoro-2-hydroxypropan-2-yl)phenyl]-2-(2-methoxybutanoyl)-5-(methylsulfamoyl)-2,3-dihydro-1H-isoindole-1-carboxamide]",39.8 nM,
"COC(C)(C)C(=O)N1Cc2cc(S(C)(=O)=O)ccc2C1C(=O)Nc1ccc(C(O)(C(F)(F)F)C(F)(F)F)cc1 (centres unmarked) [Example 419, N-[4-(1,1,1,3,3,3-Hexafluoro-2-hydroxypropan-2-yl)phenyl]-2-(2-methoxy-2-methylpropanoyl)-5-(methylsulfonyl)-2,3-dihydro-1H-isoindole-1-carboxamide]",50.1 nM,
"CC1(C(=O)N2Cc3cc(S(C)(=O)=O)ccc3[C@@H]2C(=O)Nc2ccc(C(O)(C(F)(F)F)C(F)(F)F)cc2)CCO1 (single isomer, unassigned) [Example 452, isomer 1]",,"pIC50 IL-17 release (listed as 452, isomer 1): 7.7"
"O=CN1Cc2cc(S(=O)(=O)C3CC3)ccc2C1C(=O)Nc1ccc(C(O)(C(F)(F)F)C(F)(F)F)cc1 (centres unmarked) [Example 604, 5-(Cyclopropylsulfonyl)-2-formyl-N-[4-(1,1,1,3,3,3-hexafluoro-2-hydroxypropan-2-yl)phenyl]-2,3-dihydro-1H-isoindole-1-carboxamide]",50.1 nM,
"CCOC1(C(=O)N2Cc3cc(S(C)(=O)=O)ccc3C2C(=O)Nc2ccc(C(O)(C(F)(F)F)C(F)(F)F)cc2)CC1 (centres unmarked) [Example 416, 2-[(1-Ethoxycyclopropyl)carbonyl]-N-[4-(1,1,1,3,3,3-hexafluoro-2-hydroxypropan-2-yl)phenyl]-5-(methylsulfonyl)-2,3-dihydro-1H-isoindole-1-carboxamide]",31.6 nM,
"COCCS(=O)(=O)c1ccc2c(c1)CNC2C(=O)Nc1ccc(C(O)(C(F)(F)F)C(F)(F)F)cc1 (centres unmarked) [Example 700, N-(4-(1,1,1,3,3,3-hexafluoro-2-hydroxypropan-2-yl)phenyl)-5-((2-methoxyethyl)sulfonyl)isoindoline-1-carboxamide]",100 nM,
